Assay results as given in patent publication US20240208898A1, “ENAMINE N-OXIDES: SYNTHESIS AND APPLICATION TO HYPOXIA-RESPONSIVE PRODRUGS AND IMAGING AGENTS” (DANA-FARBER CANCER INSTITUTE, INC., priority 2021, published 2024).

Tested on: series of cancer cell lines
Test: In-gel fluorescence labeling profile in a series of cancer cell lines
Type: cell-based
Method: Cells were seeded at a density of 200,000 cells per well in media [2 mL, RPMI (A431, H460, HeLa, Bx-PC3, MDA-MB-231) or DMEM (U251) supplemented with 5% heat-inactivated human serum (Sigma), penicillin (100 units/mL), and streptomycin (0.1 mg/mL)] in 6-well plates. Cells were incubated at 37° C. under ambient atmosphere with 5% CO2. After 24 h, the media was aspirated and replaced with fresh media [1 mL, RPMI (A431, H460, HeLa, Bx-PC3, MDA-MB-231) or DMEM (U251) supplemented with 5% heat-inactivated human serum, penicillin (100 units/mL), and streptomycin (0.1 mg/mL)] containing enamine N-oxide probe (200 mM in ethanol; 10 μM final concentration). Plates were then incubated at 37° C. under ambient (20% pO2) or various oxygenated conditions (5%, 1%, or 0.1% pO2) with 5% CO2. […] The protein concentration was determined by BCA assay following the manufacturer's protocol (Pierce). […] The dried pellet was then resuspended in an SDS solution (50 μL, 1% SDS in 50 mM Tris, pH 8.0), and the protein concentration was determined by BCA assay. […] In-gel fluorescence was visualized by a laser scanner (Typhoon™ FLA 9500, GE) and quantified using ImageJ software. […] Detection was mediated by an anti-rabbit IR680-dye conjugated secondary antibody (LI-COR Biosciences, 925-68071) and imaged using a fluorescence scanner (Odyssey CLx, LI-COR Biosciences).

For `C#CCCCCC(F)/C=C/[N+]([O-])(CC)CC` (stereo not shown) [probe 39, (E)-N,N-diethyl-3-fluoronon-1-en-8-yn-1-amine oxide], the “labeling profile (hypoxic vs normoxic)” value was “hypoxia selectivity”.
